The results in this text go back to patent US20090291938A1 (TAKEDA PHARMACEUTICAL COMPANY LIMITED, priority 2007, published 2009).

Each structure is given as a SMILES string.

The subject of one assay is HT29 human colorectal adenocarcinoma cell line. Description: cell proliferation assay (Cell Titer-Glo luminescent cell viability assay). The class given is cell-based. Particulars: HT-29, 72 h, read-out: pIC50 (converted). A digest of the protocol:
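Cells grown in DMEM with 10% FBS and exposed to compounds for 72 h. Viability read by CellTiter-Glo luminescence, expressed as percentage of DMSO-treated cells.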
On the technique in general: ATP-based viability assays read luminescence as a measure of living cells.
For `CN1CCC(NC(=O)c2ccc(Nc3ncc4c(n3)N(C3CCCC3)CC(C)(C)C(=O)N4C)c(OC(F)F)c2)CC1` [Compound 127, 4-(9-Cyclopentyl-5,7,7-trimethyl-6-oxo-6,7,8,9-tetrahydro-5H-pyrimido[4,5-b][1,4]diazepin-2-ylamino)-3-(difluoromethoxy)-N-(1-methylpiperidin-4-yl)benzamide], the IC50 was greater than 10 nM.

The assay is the same for the next values; noted with them: HT-29, cell proliferative assay, HT29 cells, 72 hr treatment, values given as ranges, read-out: pIC50 (converted).
Regarding `COc1cc(C(=O)N[C@H]2CCCNC2)ccc1Nc1ncc2c(n1)N(C1CCCC1)CC1(CC1)C(=O)N2C` [Compound 166, (S)-4-(9′-cyclopentyl-5′-methyl-6′-oxo-5′,6′,8′,9′-tetrahydrospiro[cyclopropane-1,7′-pyrimido[4,5-b][1,4]diazepine]-2′-ylamino)-3-methoxy-N-(piperidin-3-yl)benzamide], the IC50 was 1 to 2.51 nM. The same measure, in the same setting: next, `CNCCNC(=O)c1ccc(Nc2ncc3c(n2)N(C2CCCC2)CCC(=O)N3C)c(OC)c1` [Compound 59, 4-(9-cyclopentyl-5-methyl-6-oxo-6,7,8,9-tetrahydro-5H-pyrimido[4,5-b][1,4]diazepin-2-ylamino)-3-methoxy-N-(2-(methylamino)ethyl)benzamide]: greater than 10 nM; `CONC(=O)c1ccc(Nc2ncc3c(n2)N(C2CCCC2)CC(C)(C)C(=O)N3C)c(OC)c1` [Compound 102, 4-(9-cyclopentyl-5,7,7-trimethyl-6-oxo-6,7,8,9-tetrahydro-5H-pyrimido[4,5-b][1,4]diazepin-2-ylamino)-N,3-dimethoxybenzamide]: less than 1 nM. Regarding `COc1cc(C(=O)NCCN(C)C)ccc1Nc1ncc2c(n1)N(C1CCCC1)CC(C)(C)C(=O)N2C` [Compound 92, 4-(9-cyclopentyl-5,7,7-trimethyl-6-oxo-6,7,8,9-tetrahydro-5H-pyrimido[4,5-b][1,4]diazepin-2-ylamino)-N-(2-(dimethylamino)ethyl)-3-methoxybenzamide], the IC50 is 3.16 to 10 nM. Same read-out and setting: under `CC[C@@]1(C)CN(C2CCCCC2)c2nc(Nc3ccc(C(=O)N[C@H]4CCCNC4)cc3OC)ncc2N(C)C1=O` [Compound 149, 4-((S)-9-cyclohexyl-7-ethyl-5,7-dimethyl-6-oxo-6,7,8,9-tetrahydro-5H-pyrimido[4,5-b][1,4]diazepin-2-ylamino)-3-methoxy-N-((S)-piperidin-3-yl)benzamide] stands 3.16 to 10 nM; under `COc1cc(C(=O)N[C@H]2CCCN(C)C2)ccc1Nc1ncc2c(n1)N(C1CCCC1)CCC(=O)N2C` [Compound 54, (S)-4-(9-cyclopentyl-5-methyl-6-oxo-6,7,8,9-tetrahydro-5H-pyrimido[4,5-b][1,4]diazepin-2-ylamino)-3-methoxy-N-(1-methylpiperidin-3-yl)benzamide], 3.16 to 10 nM. On the same count and under the same terms, under `CC[C@@]1(C)CN(C2CCCC2)c2nc(Nc3ccc(C(=O)NC4CN(C)C4)cc3OC)ncc2N(C)C1=O` [Compound 132, (S)-4-(9-cyclopentyl-7-ethyl-5,7-dimethyl-6-oxo-6,7,8,9-tetrahydro-5H-pyrimido[4,5-b][1,4]diazepin-2-ylamino)-3-methoxy-N-(1-methylazetidin-3-yl)benzamide] stands 3.16 to 10 nM; under `COc1cc(C(=O)N[C@@H]2CCCN(C)C2)ccc1Nc1ncc2c(n1)N(C1CCCC1)CCC(=O)N2C` [Compound 53, (R)-4-(9-cyclopentyl-5-methyl-6-oxo-6,7,8,9-tetrahydro-5H-pyrimido[4,5-b][1,4]diazepin-2-ylamino)-3-methoxy-N-(1-methylpiperidin-3-yl)benzamide], greater than 10 nM; under `CC[C@@]1(C)CN(C2CCCC2)c2nc(Nc3ccc(C(=O)NN4CCN(C)CC4)cc3OC)ncc2N(C)C1=O` [Compound 133, (S)-4-(9-cyclopentyl-7-ethyl-5,7-dimethyl-6-oxo-6,7,8,9-tetrahydro-5H-pyrimido[4,5-b][1,4]diazepin-2-ylamino)-3-methoxy-N-(4-methylpiperazin-1-yl)benzamide], greater than 10 nM.

As for `COc1cc(C(=O)NN2CCN(C)CC2)ccc1Nc1ncc2c(n1)N(C1CCCC1)CC(C)(C)C(=O)N2C` [Compound 106, 4-(9-cyclopentyl-5,7,7-trimethyl-6-oxo-6,7,8,9-tetrahydro-5H-pyrimido[4,5-b][1,4]diazepin-2-ylamino)-3-methoxy-N-(4-methylpiperazin-1-yl)benzamide], the IC50 was less than 1 nM. Still for that read-out and setting: under `COc1cc(C(=O)NCCN2CCCC2=O)ccc1Nc1ncc2c(n1)N(C1CCCC1)CCC(=O)N2C` [Compound 46, 4-(9-cyclopentyl-5-methyl-6-oxo-6,7,8,9-tetrahydro-5H-pyrimido[4,5-b][1,4]diazepin-2-ylamino)-3-methoxy-N-(2-(2-oxopyrrolidin-1-yl)ethyl)benzamide] stands 3.16 to 10 nM; under `COc1cc(C(=O)NCc2ccccn2)ccc1Nc1ncc2c(n1)N(C1CCCC1)CCC(=O)N2C` [Compound 69, 4-(9-cyclopentyl-5-methyl-6-oxo-6,7,8,9-tetrahydro-5H-pyrimido[4,5-b][1,4]diazepin-2-ylamino)-3-methoxy-N-(pyridin-2-ylmethyl)benzamide], 3.16 to 10 nM. On to `COc1cc(C(=O)NCCN2CCNCC2)ccc1Nc1ncc2c(n1)N(C1CCCC1)CCC(=O)N2C` [Compound 55, 4-(9-cyclopentyl-5-methyl-6-oxo-6,7,8,9-tetrahydro-5H-pyrimido[4,5-b][1,4]diazepin-2-ylamino)-3-methoxy-N-(2-(piperazin-1-yl)ethyl)benzamide], for which the IC50 was greater than 10 nM.

On to `C=CCC1CN(C2CCCCC2)c2nc(Nc3ccc(C(=O)N[C@H]4CCCNC4)cc3OC)ncc2N(C)C1=O` (stereo partly drawn) [Compound 192, 4-(7-allyl-9-cyclohexyl-5-methyl-6-oxo-6,7,8,9-tetrahydro-5H-pyrimido[4,5-b][1,4]diazepin-2-ylamino)-3-methoxy-N-((S)-piperidin-3-yl)benzamide], for which the IC50 is greater than 10 nM.
